Results: PubChem BioAssay AID330 (DTP/NCI, 2004)
Values joined by “and” are separate entries in the source; they are usually repeats but may differ in a detail not shown here. Equal entries are not always repeated. Toxic doses and inconclusive results are not listed.

Test system: P388 leukemia ip, CD2F1 mice, survival T/C
Test: NCI In Vivo Anticancer Drug Screen. Data for tumor model P388 Leukemia (intraperitoneal) in CD2F1 (CDF1) mice
Conditions: endpoint: median survival time, higher = longer survival
Summary of the method: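 Mice carrying the transplanted tumor received test compound or vehicle. Survival was recorded in each group, and the value is the treated-group measurement divided by that of the vehicle-treated control group.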

[1] = dose: 50.0 mg/kg/injection, schedule: Q01DX009 (ip), vehicle: saline with Tween-80
[2] = dose: 100.0 mg/kg/injection, schedule: Q01DX009 (ip), vehicle: saline with Tween-80
[3] = dose: 200.0 mg/kg/injection, schedule: Q01DX009 (ip), vehicle: saline with Tween-80
[4] = dose: 60.0 mg/kg/injection, schedule: Q01DX005 (ip), vehicle: saline with Tween-80
[5] = dose: 120.0 mg/kg/injection, schedule: Q01DX005 (ip), vehicle: saline with Tween-80
[6] = dose: 240.0 mg/kg/injection, schedule: Q01DX005 (ip), vehicle: saline with Tween-80
[7] = dose: 50.0 mg/kg/injection, schedule: Q01DX005 (ip), vehicle: saline with Tween-80
[8] = dose: 50.0 mg/kg/injection, schedule: Q01DX005 (ip), vehicle: Klucel (hydroxypropylcellulose) (HPC)

COc1ccc(C(=O)NO)cc1
T/C [1]: 109 % of control
T/C [2]: 102 % of control
T/C [3]: 109 % of control
T/C (dose: 400.0 mg/kg/injection, schedule: Q01DX009 (ip), vehicle: saline with Tween-80): 115 % of control

CCOC(=O)NC(=S)Nc1ccsc1
T/C [1]: 99 % of control
T/C [2]: 104 % of control
T/C [3]: 102 % of control

CCOC(=O)CC(=O)N(c1ccc(OC)cc1)C(C(=O)OC)c1ccccc1 (centres undefined)
T/C [4]: 101 % of control
T/C [5]: 104 % of control
T/C [6]: 104 % of control

COc1ccc(C(C)c2cc(N=NC(N)=O)c(OC)cc2O)cc1 (centres undefined)
T/C (dose: 12.5 mg/kg/injection, schedule: Q01DX005 (ip), vehicle: saline with Tween-80): 94 % of control
T/C (dose: 25.0 mg/kg/injection, schedule: Q01DX005 (ip), vehicle: saline with Tween-80): 90 % of control
T/C [7]: 90 % of control

CC(C)(CC(=O)OCCO)c1cc(CC(C)(C)c2cc(CC(C)(C)c3cc(CC(C)(C)C4(C)OCCO4)no3)no2)no1
T/C (dose: 100.0 mg/kg/injection, schedule: Q04DX002 (ip), vehicle: saline with Tween-80): 88 % of control
T/C (dose: 200.0 mg/kg/injection, schedule: Q04DX002 (ip), vehicle: saline with Tween-80): 87 % of control
T/C (dose: 400.0 mg/kg/injection, schedule: Q04DX002 (ip), vehicle: saline with Tween-80): 87 % of control

O=C1CCCCCOCCOCCOCCOCCOCCCCC1
T/C [7]: 104 % of control
T/C (dose: 100.0 mg/kg/injection, schedule: Q01DX005 (ip), vehicle: saline with Tween-80): 96 % of control
T/C (dose: 200.0 mg/kg/injection, schedule: Q01DX005 (ip), vehicle: saline with Tween-80): 101 % of control

[Cl][Hg][CH]1CCCC2OC(C(Cl)(Cl)Cl)OC21 (centres undefined)
T/C (dose: 3.13 mg/kg/injection, schedule: Q01DX001 (ip), vehicle: saline with Tween-80): 113 % of control
T/C (dose: 6.25 mg/kg/injection, schedule: Q01DX001 (ip), vehicle: saline with Tween-80): 97 % of control
T/C (dose: 12.5 mg/kg/injection, schedule: Q01DX001 (ip), vehicle: saline with Tween-80): 94 % of control

O=NN(CCCl)C(=O)Oc1cc(Cl)c(Cl)cc1Cl
T/C (dose: 25.0 mg/kg/injection, schedule: Q01DX001 (ip), vehicle: Klucel (hydroxypropylcellulose) (HPC)): 116 % of control
T/C [8]: 86 % of control
T/C (dose: 75.0 mg/kg/injection, schedule: Q01DX001 (ip), vehicle: Klucel (hydroxypropylcellulose) (HPC)): 154 % of control and 250 % of control
T/C (dose: 100.0 mg/kg/injection, schedule: Q01DX001 (ip), vehicle: Klucel (hydroxypropylcellulose) (HPC)): 258 % of control

N#C/C(=C\c1ccc(Cl)cc1Cl)C(=O)N/N=C/c1ccc(Cl)cc1Cl
T/C (dose: 100.0 mg/kg/injection, schedule: Q04DX003 (ip), vehicle: saline): 95 % of control
T/C (dose: 200.0 mg/kg/injection, schedule: Q04DX003 (ip), vehicle: saline): 97 % of control
T/C (dose: 400.0 mg/kg/injection, schedule: Q04DX003 (ip), vehicle: saline): 90 % of control

CCOC(=O)NNC(=O)Nc1ccc(O[Si](C)(C)C)cc1
T/C [4]: 109 % of control
T/C [5]: 102 % of control
T/C [6]: 100 % of control

Nc1nc2c(ccc3ccccc32)s1
T/C (dose: 25.0 mg/kg/injection, schedule: Q01DX009 (ip), vehicle: saline with Tween-80): 115 % of control
T/C [1]: 102 % of control and 108 % of control and 97 % of control
T/C [2]: 100 % of control and 110 % of control and 93 % of control
T/C [3]: 103 % of control and 108 % of control and 93 % of control

CN(C)CCNc1cccc2oc3ccc(O)cc3c(=O)c12
T/C (dose: 25.0 mg/kg/injection, schedule: Q01DX005 (ip), vehicle: Klucel (hydroxypropylcellulose) (HPC)): 101 % of control
T/C [8]: 107 % of control
T/C (dose: 100.0 mg/kg/injection, schedule: Q01DX005 (ip), vehicle: Klucel (hydroxypropylcellulose) (HPC)): 110 % of control
T/C (dose: 200.0 mg/kg/injection, schedule: Q01DX005 (ip), vehicle: Klucel (hydroxypropylcellulose) (HPC)): 114 % of control

O=c1[nH]c2c([N+](=O)[O-])cc(Cl)cc2nc1/C=C(\O)c1ccc(Cl)cc1
T/C (dose: 30.0 mg/kg/injection, schedule: Q01DX005 (ip), vehicle: Klucel (hydroxypropylcellulose) (HPC)): 99 % of control
T/C (dose: 60.0 mg/kg/injection, schedule: Q01DX005 (ip), vehicle: Klucel (hydroxypropylcellulose) (HPC)): 100 % of control
T/C (dose: 120.0 mg/kg/injection, schedule: Q01DX005 (ip), vehicle: Klucel (hydroxypropylcellulose) (HPC)): 99 % of control and 108 % of control
T/C (dose: 240.0 mg/kg/injection, schedule: Q01DX005 (ip), vehicle: Klucel (hydroxypropylcellulose) (HPC)): 105 % of control
